{"source": "PubChem BioAssay AID1671275", "biological_target": "Ephrin type-B receptor 3 (Homo sapiens) (UniProt P54753)", "sequence (P54753 whole entry, looked up)": "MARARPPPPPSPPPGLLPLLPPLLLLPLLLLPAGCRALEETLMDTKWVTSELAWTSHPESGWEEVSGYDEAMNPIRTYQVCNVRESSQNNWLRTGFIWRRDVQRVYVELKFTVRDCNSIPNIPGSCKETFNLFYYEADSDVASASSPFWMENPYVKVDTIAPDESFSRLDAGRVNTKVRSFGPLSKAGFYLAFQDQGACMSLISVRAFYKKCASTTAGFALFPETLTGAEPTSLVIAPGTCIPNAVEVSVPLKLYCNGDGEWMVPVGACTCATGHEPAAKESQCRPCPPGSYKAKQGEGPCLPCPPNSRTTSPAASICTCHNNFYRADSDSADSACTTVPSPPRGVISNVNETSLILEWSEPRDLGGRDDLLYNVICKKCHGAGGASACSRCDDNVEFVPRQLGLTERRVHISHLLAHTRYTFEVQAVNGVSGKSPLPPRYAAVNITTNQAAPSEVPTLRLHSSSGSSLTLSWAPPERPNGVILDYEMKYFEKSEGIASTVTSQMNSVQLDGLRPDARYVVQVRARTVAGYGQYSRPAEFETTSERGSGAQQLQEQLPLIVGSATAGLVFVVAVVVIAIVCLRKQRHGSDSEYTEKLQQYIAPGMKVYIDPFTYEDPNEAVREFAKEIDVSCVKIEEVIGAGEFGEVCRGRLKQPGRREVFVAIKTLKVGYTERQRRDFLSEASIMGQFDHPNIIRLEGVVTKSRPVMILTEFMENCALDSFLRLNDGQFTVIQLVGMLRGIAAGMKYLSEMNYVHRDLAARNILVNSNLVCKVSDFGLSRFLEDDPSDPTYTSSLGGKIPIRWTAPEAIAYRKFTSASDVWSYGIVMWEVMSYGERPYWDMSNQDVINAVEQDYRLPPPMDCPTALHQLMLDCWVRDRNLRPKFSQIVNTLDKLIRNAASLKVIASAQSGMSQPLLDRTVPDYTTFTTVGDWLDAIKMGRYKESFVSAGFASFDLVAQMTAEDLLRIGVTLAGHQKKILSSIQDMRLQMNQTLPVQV", "assay": "inhibition of human ephrin receptor B3 activity – biochemical, Z'-LYTE, FRET, protease-coupled, direct format, dose response (AID 1671275)", "conditions": "Z'-LYTE FRET kinase activity assay, recombinant EPHB3", "data": [{"compound": "CC(C)(C)n1nc(-c2ccc(Cl)cc2)c2c(N)ncnc21", "values": [{"measurement": "IC50", "result": 763, "unit": "nM"}]}]}
